Assay results as given in US20080280877A1, “Azetidines” (Pfizer Inc, priority 2007, published 2008).

Biological target: T1, recombinant human EP-2 receptor (Homo sapiens, UniProt P43116)
T1 construct: cell line stably transfected with full length cDNA encoding human Prostaglandin E2 was established; expressed in transfected cells; host or cells: CHO (Chinese hamster ovary) cells, stably transfected
Assay: in vitro antagonist potency against recombinant human EP-2 receptor in CHO cells (cAMP, Protocol 1)
Format: cell-based
Conditions: functional Ki by Cheng-Prusoff from IC50; CHO cells stimulated with PGE2 (5 nM); cAMP readout; read-out: EP2 Ki
Description: 1.0 Measurement of in vitro Antagonist Potency (IC50) of Compounds Against Recombinant Human Prostaglandin E2 Receptor in CHO Cells
The prostaglandin E2 (EP-2) receptor is Gs coupled and agonism of the receptor by PGE2 results in activation of intracellular adenylate cyclase enzymes that synthesise the second messenger signalling molecule, adenosine 3′,5′-cyclic monophosphate (cAMP). […] Decreases in cAMP levels following treatment of stimulated recombinant EP-2 cells with potential antagonist compounds were measured and potency (IC50) calculated as follows. A Chinese hamster ovary (CHO) cell line stably transfected with full length cDNA encoding human Prostaglandin E2 was established using standard molecular biology methods. Test compounds were dissolved in dimethyl sulphoxide (DMSO) at 4 mM. 11 point half log unit increment dilution series of test compound were prepared in DMSO then diluted 1 in 40 in a buffer comprised of phosphate buffered saline (PBS) and 0.05% pluronic F-127 surfactant. Freshly cultured cells at 80-90% confluence were harvested and re-suspended in 90% growth media/10% DMSO. The cells were frozen using a planar freezer and stored in frozen aliquots in cryovials in liquid nitrogen until the day of the experiment. A vial of cells was defrosted in a 37° C. water bath for 2 min, then transferred to 10 ml of Dulbecco's Modified Eagle's Medium (DMEM). The cells were then centrifuged for 5 min at 1000 g and the pellet re-suspended at 1,000,000 cells/ml in DMEM. 5,000 cells (5 ul) were added to 5 ul of the compound dilution series in a 384 well assay plate and pre-incubated for 30 min at 37° C. 5 ul of agonist (15 nM PGE2 in PBS to give 5 nM FAC) was added and plates further incubated for 90 min at 37° C. The relative cAMP concentration in each well was then measured using a ? -galactosidase enzyme fragment complementation method purchased in kit form as the Discoverx cAMP II kit from GE Healthcare, UK. […] Sigmoidal curves were fitted to plots of log10 inhibitor concentration vs. percent effect. IC50 estimates were determined as the concentration of test compound giving an effect half way between the bottom and top asymptotes of the sigmoidal dose response curve. Each experiment included an IC50 determination for the literature compound as a standard to track assay consistency and allow fair comparison between values obtained in different experiments. The EC50 of PGE2 is used in combination with the ligand concentration in the assay to determine Ki values for antagonist dose responses using the Cheng-Prusoff equation. Consequently an agonist dose response curve is carried out for each experiment using the same incubation as the antagonist plate.

T1 sequence (P43116 whole entry): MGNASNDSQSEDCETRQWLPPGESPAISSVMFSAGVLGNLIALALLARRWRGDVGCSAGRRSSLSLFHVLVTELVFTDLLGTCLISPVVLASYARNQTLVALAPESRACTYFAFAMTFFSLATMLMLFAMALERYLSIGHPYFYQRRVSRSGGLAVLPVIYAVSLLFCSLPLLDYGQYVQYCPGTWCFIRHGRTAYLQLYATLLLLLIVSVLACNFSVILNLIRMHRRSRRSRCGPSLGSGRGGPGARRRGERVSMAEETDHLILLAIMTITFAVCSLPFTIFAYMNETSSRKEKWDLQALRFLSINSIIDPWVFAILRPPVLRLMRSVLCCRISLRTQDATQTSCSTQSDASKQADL

Going from `O=C(c1ccc(F)cc1)N1CC(COc2ccc(-c3ncc(Cl)cn3)cc2)(C(=O)O)C1` [Example 9] to `O=C(c1ccc(F)cc1)N1CC(COc2cnc(-c3ccc(Cl)cc3)nc2)(C(=O)O)C1` [Example 11], the Ki rises from 6.6 nM to 10.5 nM (1.6-fold). The first binds more tightly here.

`CCOC(=O)C1(COc2ccc3cc(OC)ccc3c2)CN(C(=O)c2ccc(F)cc2)C1` [Example 51, Ethyl 1-(4-fluorobenzoyl)-3-{[(6-methoxy-2-naphthyl)oxy]methyl}azetidine-3-carboxylate] and `COc1ccc2cc(OCC3(C(=O)O)CN(C(=O)Oc4ccc(F)cc4)C3)ccc2c1` [Example 60, 1-[(4-Fluorophenoxy)carbonyl]-3-{[(6-methoxy-2-naphthyl)oxy]methyl}azetidine-3-carboxylic acid] are within 1.5-fold of each other in Ki: 333 nM for the first, 268 nM for the second.
